Active and inactive are the calls of the source. The calls are words filed in the database; no cut-off is given here.
What was measured:
[1] = Inhibition of alpha-glucosidase (unknown origin) using p-NPG as substrate by spectrophotometric analysis; parameters: species or system Homo sapiens
Homo sapiens = organism: Homo sapiens; assay: Mixed inhibition of alpha-glucosidase (unknown origin) using p-NPG as substrate by Lineweaver-Burk plot analysis
[2] = Inhibition of alpha-glucosidase (unknown origin) using p-NPG as substrate by Dixon plot analysis; parameters: species or system Homo sapiens

## COc1ccc(/C=C/c2cc(O)cc(O[C@@H]3O[C@H](CO)[C@@H](O)[C@H](O)[C@H]3O)c2)cc1O [RHAPONTIN]
[1]
  IC50: > 100 µM

## COc1ccc(/C=C/c2cc(O)cc(O[C@@H]3O[C@H](COC(C)=O)[C@@H](O)[C@H](O)[C@H]3O)c2)cc1O
[1]
  IC50: > 100 µM

## COc1ccc(/C=C/c2cc(O)cc(O[C@@H]3O[C@H](COC(=O)c4ccc(O)cc4)[C@@H](O)[C@H](O)[C@H]3O)c2)cc1
[1]
  IC50: > 100 µM

## COc1ccc(/C=C\c2cc(O)cc(O[C@@H]3O[C@H](COC(=O)/C=C/c4ccc(O)cc4)[C@@H](O)[C@H](O)[C@H]3O)c2)cc1
[1]
  IC50: > 100 µM

## COc1cc(O[C@@H]2O[C@H](CO)[C@@H](O)[C@H](O)[C@H]2O)c2c(O)c(C(C)=O)c(C)cc2c1
[1]
  IC50: > 100 µM

## COc1ccc([C@@H]2[C@@H](c3cc(O)cc(O)c3)[C@@H](c3cc(O)cc(O)c3)[C@@H]2c2ccc(OC)c(O)c2)cc1O
[1]
  IC50: 80.1 µM

## COc1ccc(/C=C/c2cc(O)cc(O)c2)cc1O
[1]
  IC50: 15.4 µM
Homo sapiens
  inhibition: Active
[2]
  Ki: 15.3 µM

## C[C@H]1O[C@H](O[C@H]2[C@H](O)[C@@H](O)[C@@H](O[C@H]3[C@H](O)[C@@H](O)C(O)O[C@@H]3CO)O[C@@H]2CO)[C@H](O)[C@@H](O)[C@@H]1N[C@H]1C=C(CO)[C@@H](O)[C@H](O)[C@H]1O (some centres undefined) [ACARBOSE]
[1]
  IC50: 127 µM

## COc1cc(O[C@@H]2O[C@H](CO)[C@@H](O)[C@H](O)[C@H]2O)c2c(c1)C(=O)C(C)=C(C(C)=O)C2=O
[1]
  IC50: > 100 µM

## OC[C@H]1O[C@@H](Oc2cc(O)cc(/C=C/c3ccc(O)cc3)c2)[C@H](O)[C@@H](O)[C@@H]1O [PICEID]
[1]
  IC50: > 100 µM

## Cc1cc(O[C@@H]2O[C@H](CO)[C@@H](O)[C@H](O)[C@H]2O)c2c(c1)C(=O)c1cccc(O)c1C2=O [CHRYSOPHANEIN]
[1]
  IC50: > 100 µM

## Cc1cc(O)c2c(c1)C(=O)c1cccc(O[C@@H]3O[C@H](CO)[C@@H](O)[C@H](O)[C@H]3O)c1C2=O [PULMATIN]
[1]
  IC50: > 100 µM

— ChEMBL document CHEMBL4627309, “Tetra-aryl cyclobutane and stilbenes from the rhizomes of Rheum undulatum and their α-glucosidase inhibitory activity: Biological evaluation, kinetic analysis, and molecular docking simulation” (Bioorg Med Chem Lett, 2020)
